Data taken from US20130123358A1, “Metabolic Benefits to Butyrate as a Chronic Diet Supplement” (priority 2009, published 2013).

Assays:
[1] = test system: skeletal muscle (vastus laterais, gastrocnemius, soleus); test: Skeletal muscle fiber type and immunoblot; type: in vivo, mouse; details: butyrate 5% w/w in HFD 13 weeks
Text: Fresh fat and muscles were collected and frozen in liquid nitrogen. The whole cell lysate protein was extract in lysis buffer with sonication and analyzed in western blot as described elsewhere (16). Antibodies were used in study of myoglobin (sc-25607, Santa Cruz), PGC-1 (sc-13068, Santa Cruz), Tubulin (ab7291, Abcam), myosin (M8421, Sigma), pAMPK (Thr 172, #2531, Cell signaling) and p-p38 (sc-7975, Santa Cruz). To detect multiple signals from one membrane, the membrane was stripped with a stripping buffer. Intensity of the immunoblot signal was quantified using a computer program, ImageJ 1.37v (NIH). The mean values of results from three experiments (6 mice each group) were presented. The antibodies to PGC-1α and UCP-1 were from Dr. Thomas Gettys at Pennington Biomedical Research Center, Baton Rouge, La.
The fiber types in skeletal muscle were examined using two methods: succinate dehydrogenase (SDH) staining for […] and immunostaining of type I myosin heavy chain. In the SDH staining, mid-belly cross-sections of muscle were cut at 8 μm in a cryostat (−20° C.). After drying for 5 min at room temperature, the sections were incubated at 37° C. for 60 min in the incubation solution containing 6.5 mmol/l sodium phosphate monobasic, 43.5 mmol/l sodium phosphate biphasic, 0.6 mmol/l nitroblue tetrazolium (74032, Sigma), and 50 mmol/l sodium succinate (14160, Sigma). The sections were rinsed three times (30 sec/time) in 0.9% saline, 5 min in 15% ethanol and then mounted with aqueous mounting medium (Dakocyrtoma).
Fresh skeletal muscle was collected, embedded in gum tragacanth mixed with OCT freezing matrix, and quickly frozen in isopentane cooled in liquid nitrogen. The tissue slides were obtained through serial cross-section cutting at 8 um thickness and processed with a standard procedure. The slides was blotted with a monoclonal antibody against the type I myosin heavy chain (M8421, Sigma) at 1:200 dilution. After being washed, the slide was incubated with a biotinylated secondary antibody (BA-2000). For PGC-1 staining, paraffin sections (8 μm) of BAT or inguinal fat on slides were deparaffinized and blotted with primary antibody of PGC-1 (sc-13067, Santa Cruz) at 1:200, the sections were washed and incubated with a biotinylated secondary antibody (rabbit IgG) in ABC kit. The slides were then incubated with the ABC elite reagent (PK-6101) and color reaction was performed using the DAB substrate kit (SK-4100) for myosin I and AEC substrate kit (AEC101, Sigma) for PGC-1a according to instructions by the manufacturers.
To look for oxidative fiber in skeletal muscle, the vastus laterais muscle was isolated from mice that were fed on HFD for 13 weeks. […] A fiber type analysis was conducted in the vastus laterais, gastrocnemius (rich in glycolytic fibers) and soleus (rich in oxidative fiber). Serial cryostat sections of muscle were made from vastus lateralis, gastrocnemius (gastr.) and soleus muscle. The slides were stained with antibody against Type I myosin heavy chain for oxidative fibers. The ratio of type I fibers were increased in all of the skeletal muscle of butyrate-treated mice (data not shown). Succinate dehydrogenase staining of oxidative fibers was done on serial cryostat sections of the vastus lateralis and gastrocnemius (gastr.) muscle.
To quantify the amount of protein of type 1 myosin heavy chain and PGC-1α, whole cell lysates were prepared from muscle tissues and analyzed in an immunoblot. Signals for PGC-1α, type I myosin heavy chain (Myosin), myoglobin, phospho-AMPK and phospho-p38 (p-p38) were blotted with specific antibodies. Relative signal strength was quantified for each band and expressed in FIG. 5B. The results are the mean±SE (n=8 mice). *P<0.01, ** P<0.001 (vs. control). […] A mean value of each protein was presented in the bar figure in FIG. 5B.
AMPK and p38 activities were examined by their phosphorylation status. […]

[2] = test system: 3T3-L1 cells; test: Adipogenesis in 3T3-L1 cells (qRT-PCR, Oil red O); type: cell-based
Protocol: (§1) The epididymal fat pad was examined to test this effect of butyrate. The tissue was collected at 13 weeks on HFD (18 weeks in age) and used to make a tissue slide (FIG. 3A). After H&E staining, the slide was photographed under a microscope at magnification 20× (FIG. 3A). Gene expression was determined by qRT-PCR at day 8 after induction of cell differentiation of 3T3-L1 cells. Butyrate was used at 100 uM during induction of adipogenesis. Triglycerides in the 3T3-L1 mature adipocyte cells were quantified using Oil red 0 staining at the day 8 post-induction of differentiation (FIG. 3C). In addition, levels of mRNA for leptin, adiponectin, F4/80 (macrophage marker), TNF-α, and iNOS were determined in the epididymal fat and their relative levels are presented in bar figures (FIGS. 3D-3H). In FIGS. 3A-3H, data are represented as mean±SE (n=8). *P<0.05, **P<0.001.
To confirm the butyrate effect on adipocytes, 3T3-L1 cells were used to study butyrate activity in vitro. The cells were treated with butyrate during induction of adipogenesis, which was determined by expression of adipocyte-specific genes and triglyceride amount. […] However, expression of leptin was reduced by butyrate (FIG. 3B). The reduction may be a result of a decrease in triglyceride accumulation in the differentiated 3T3-L1 adipocytes (FIG. 3C). The triglyceride level was reduced 50% in the cells treated by butyrate.

[3] = test system: epididymal fat pad; test: White adipose tissue: fat pad morphology and gene expression; type: in vivo, mouse
Protocol: Total RNA was extracted from frozen tissues (kept at −80° C.) using Tri-Reagent (T9424, Sigma) as described elsewhere (16). Taqman RT-PCR primer and probe were used to determine mRNA for PGC-1α (Mm00447183_m1), UCP-1 (Mm00494069_m1), PPARδ (Mm01305434_m1) and CPT1b (Mm00487200_m1). The reagents were purchased from Applied Biosystems (Foster City, Calif.). Mouse ribosome 18S rRNA_s1 (without intron-exon junction) was used as an internal control. Reaction was conducted with 7900 HT Fast real time PCR System (Applied Biosystems, Foster City, Calif.).
Fresh tissues (muscle, fat and liver) were collected at 16 weeks of age after 12 weeks butyrate feeding and fixed in 10% neutral buffered formalin solution (HT50-1-2, Sigma). The tissue slides were obtained through serial cross-section cutting at 8 um thickness and processed with a standard procedure. Briefly, the slides were deparaffinated and stained in haematoxylin (#101542, Surgipath) for 15 min, and rinsed in water until sections are blue. Then, slides were stained in Eosin (E4009, Sigma), dehydrated quickly in 95% ethanol and treated with […]. The sections were mounted and photographed with Nikon microscope (Eclipse TS100, Japan).
as §1

[4] = butyrate 100 uM during induction of adipogenesis, qRT-PCR day 8
[5] = butyrate 5% w/w in HFD vs control, mRNA

**Q.** `CCCC(=O)[O-].[Na+]` [sodium butyrate] was tested. Which “AMPK phosphorylation in muscle lysate” value ([1]; immunoblot) did it give?
**A.** Its value is “increase in their phosphorylation”.

**Q.** What about the “PGC-1α protein in muscle” value ([1]; immunoblot) of the same molecule?
**A.** The value was “significant increase”.

**Q.** And the “myoglobin protein in muscle” value ([1]; immunoblot)?
**A.** Its value is “also increased”.

**Q.** What about the “p38 phosphorylation in muscle lysate” value ([1]; immunoblot) of the same molecule?
**A.** Its value is “increase in their phosphorylation”.

**Q.** What about the “type 1 myosin heavy chain protein in muscle” value ([1]; immunoblot) of the same molecule?
**A.** Its value is “significant increase”.

**Q.** And the “Type I fibers (succinate dehydrogenase staining)” value ([1]; vastus lateralis and gastrocnemius)?
**A.** The value was “increase in Type I fibers”.

**Q.** What about the “ratio of type I fibers (Type I myosin heavy chain immunostaining)” value ([1]; vastus lateralis, gastrocnemius, soleus) of the same molecule?
**A.** The value was “increased”.

**Q.** And the “adipocyte-specific markers (PPARδ, aP2, SREBP, and adiponectin)” value [2, 4]?
**A.** The value was “not reduced”.

**Q.** What about the expression of leptin [2, 4] of the same molecule?
**A.** Its expression of leptin is “reduced”.

**Q.** And the “triglyceride level, reduction” value ([2]; butyrate 100 uM, Oil red O, day 8 post-induction)?
**A.** The value was 50%.

**Q.** And the “TNF-α expression in epididymal fat” value [3, 5]?
**A.** Its value is “reduced”.

**Q.** What about the “iNOS expression in epididymal fat” value [3, 5] of the same molecule?
**A.** The value was “reduced”.

**Q.** What about the “leptin expression in epididymal fat” value [3, 5] of the same molecule?
**A.** The value was “lower level”.

**Q.** What about the “macrophage marker F4/80 expression in epididymal fat” value [3, 5] of the same molecule?
**A.** The value was “reduced”.

**Q.** What about the “epididymal fat pad mass, less than control” value ([3]; butyrate 5% w/w in HFD, 13 weeks) of the same molecule?
**A.** Its value is 80%.

**Q.** And the “adipocyte size, smaller than control” value ([3]; butyrate 5% w/w in HFD, 13 weeks, H&E)?
**A.** The value was 50%.

**Q.** And the “adiponectin expression in epididymal fat, higher than control” value ([3]; butyrate 5% w/w in HFD, mRNA)?
**A.** The value was 50%.
